Data on two compounds can be found in patent publication US20240228481A1, “NOVEL SULFONAMIDE SERIES OF QR2 INHIBITORS TO TACKLE OXIDATIVE STRESS AND COGNITIVE DECLINE” (CARMEL HAIFA UNIVERSITY ECONOMIC CORPORATION LTD., priority 2021, published 2024).

SMILES strings stand for the structures. “And” between values parts separate entries of the source, which are not always exact repeats. Identical values can stand only once. Counter-ions that a name gives are not always drawn.

One data set addresses T1, QR1 (NQO1) (Homo sapiens, UniProt P15559).
T1 construct: purchased Sigma-Aldrich
The data set is described as follows: Selectivity assay with QR1 in place of QR2, fluorescence readout. In kind it is biochemical.

The next data set deals with HEK293T cells. Kind of data set: XTT cell viability assay. The conditions noted are these: 3 h incubation, 20 nM-20 μM. It counts as cell-based. As for the experimental part: HEK293FT cells were cultured with penicillin-streptomycin antibiotics in Invitrogen DMEM (Thermo Fisher Scientific) with 10% fetal bovine serum and L-glutamine and grown to 80-90% confluence in 100 mm plates, while being passaged every 2-3 days. For the XTT assay (Biological Industries), cells were then collected, centrifuged, and resuspended in fresh minimum essential medium, and seeded at 50,000 cells/well in 96-well, poly-L-lysine-coated Nunc black, clear flat-bottomed plates (Thermo Fisher Scientific). The next day, the cells were treated with increasing doses of QR2 inhibitors or vehicle for 3 h, and the XTT assay was then carried out as according to the manufacturer's instructions.

The target in a further data set is T2, QR2 (Homo sapiens, UniProt P16083).
T2 sequence (P16083 1-231): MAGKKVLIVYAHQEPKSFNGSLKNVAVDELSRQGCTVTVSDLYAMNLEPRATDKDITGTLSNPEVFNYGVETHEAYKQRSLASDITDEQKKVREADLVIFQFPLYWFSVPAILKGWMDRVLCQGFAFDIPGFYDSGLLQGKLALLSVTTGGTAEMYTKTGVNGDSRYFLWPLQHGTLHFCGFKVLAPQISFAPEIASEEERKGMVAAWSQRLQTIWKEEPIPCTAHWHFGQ
Kind of data set: QR2 enzymatic activity assay (menadione/BNAH), fluorescence readout. In kind it is biochemical. The arrangement: purchased Sigma-Aldrich.

For another data set, the system named is THLE-2 cells. Kind of data set: Cell toxicity assay (ATP depletion, CellTiter Glo). The conditions noted are these: 72 h incubation, CellTiter Glo.
The next data set deals with 5×FAD mice. The data set is described as follows: Weight, drinking rate and wellbeing of 5×FAD mice under treatment in drinking water. The following applies: for average weight: 25 days, drinking water.

T1 sequence (P15559 whole entry): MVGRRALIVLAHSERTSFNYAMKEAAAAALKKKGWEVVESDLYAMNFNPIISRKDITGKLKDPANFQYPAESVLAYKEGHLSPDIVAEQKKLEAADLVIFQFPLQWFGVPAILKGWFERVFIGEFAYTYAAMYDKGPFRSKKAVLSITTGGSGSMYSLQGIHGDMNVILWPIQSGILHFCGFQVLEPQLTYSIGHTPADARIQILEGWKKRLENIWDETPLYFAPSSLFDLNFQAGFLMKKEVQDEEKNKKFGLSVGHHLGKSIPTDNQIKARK
Method for THLE-2 cells: THLE-2 (CRL-2706™) were grown in the BEGM Bullet Kit (CC-3170) from Lonza. Besides the additives contained in the kit, the medium was further supplemented with 5 ng/mL EGF (Sigma), 70 ng/mL phosphoethanolamine (Sigma) and 10% FBS (Biological Industries). The plates for the THLE-2 needed to be pre-coated with a mixture of 0.01 mg/mL fibronectin, 0.05 mg/mL of PureCol™ EZ Gel Solution (Sigma) and 0.01 mg/mL of BSA dissolved in BEBM medium (Lonza). The coating medium was aspirated before seeding.
THLE-2 cells were exposed to the compounds in a 9-point, 2-fold dilution dose response series with a 100 μM as upper limit, for 72 h. Following the 72 h of exposure to the test compounds, cell viability was determined by measuring the concentration of cellular ATP (CellTiter Glo, Promega). The luminescence signal was measured on a Pherastar FS multi-mode plate reader (BMG Labtech). Each data point was tested in a triplicate.
First, toxicity was assessed in an ATP depletion assay, using THLE-2 cells following a 72 h exposure to a dose response of each of the tested compounds.

Turning to `Cc1cccn2cc(-c3cccc(S(=O)(=O)N4CCC(C)CC4)c3)nc12` [YB-800], the 50% inhibitory concentration (IC50) on QR1 (NQO1) is > 9.99 µM; on QR2 it was 0.03 µM. Also, the “toxicity in XTT assay” value in the data set with HEK293T cells is reported as “no toxicity”. In the data set on THLE-2 cells, the “median lethal dose (LD50) in THLE cells” value was 78.4 µM and 78.401 µM.
For the compound `Cc1ccc(-c2cn3cccc(C)c3n2)cc1S(=O)(=O)N1CCNCC1` [YB-537, 8-methyl-2-(4-methyl-3-(piperazin-1-ylsulfonyl)phenyl)imidazo[1,2-a]pyridine hydrochloride], the half-maximal inhibitory concentration (IC50) at QR1 (NQO1) stood at 18.4 µM; against QR2, 0.03 µM. Also, in the data set with 5×FAD mice (5×FAD both sexes, 50 mg/kg in drinking water), the “adverse effects during month-long treatment” value was “no adverse effects were seen”. In addition, the results for the average drinking rate in the data set with 5×FAD mice (5×FAD females) and with 5×FAD mice (5×FAD males) were 0.170 ± 0.011 mL/g/day and 0.170 ± 0.035 mL/g/day, respectively. Further, the average weight stood at 22.76 ± 0.192 g in the data set with 5×FAD mice (5×FAD females) and 32.56 ± 0.279 g in the data set with 5×FAD mice (5×FAD males). Besides, the “toxicity in XTT assay” value in the data set with HEK293T cells is reported as “no toxicity”. For the same compound, the “median lethal dose (LD50) in THLE cells” value with THLE-2 cells is > 100 µM.
